From patent US9085606B2, “Beta amino acid derivatives as integrin antagonists” (Saint Louis University, priority 2012, dated 2015) come the findings set out here.

The target of experiment [1] is T1, Recombinant human integrin α5β1 (Homo sapiens, UniProt P05556+P08648).
T1 construct: purchased R&D Systems 3230-A5
Kind of experiment: Solid Phase Receptor Assay for α5β1 Function. The conditions noted are these: binding to fibronectin-coated plate; read-out: α5β1 SPRA IC50. As for the experimental part:
Solid Phase Receptor Assay for α5β1 Function.
Wells were washed 3 times with 150 μL TBS+ and 150 μl of blocking buffer (TBS+ with 1% bovine serum albumin, Sigma A7906) were added. The plate was incubated for 1 hr at 37° C. and then washed 3× with TBS+ buffer. […] Compounds were diluted 1:100 into the integrin solution and then 50 μL added to empty wells of the washed fibronectin-coated plate according to a standard template with each sample repeated in triplicate. After incubation for two hours at room temperature, the plate was washed 3× with 150 μL of TBS+ buffer. To each well, 50 μL of biotinylated anti-α5 antibody (R&D Systems, BAF1864) at 0.5 ug/mL in TBS+/0.1% BSA were added and the plate covered and incubated for 1 hr at room temperature. After washing the plate 3× with 150 μL of TBS+ buffer, 50 μL of streptavidin-conjugated horseradish peroxidase (R&D Systems, DY998) diluted in TBS+ blocking buffer were added to the wells and the plate incubated for 20 min at room temperature. The plate was washed 3× with TBS+ buffer followed by 50 μL of room temperature TMB substrate (Sigma, T444) added to each well and the plate incubated for 20 min at room temperature. The reaction was optionally stopped with 25 μL of Stop Solution (Sigma S5689). Plates were read by colorimetric detection at 650 nm wavelength using a Tecan Safire II plate reader.

The target of experiment [2] is T2, Recombinant human integrin αvβ5 (Homo sapiens, UniProt P06756+P18084).
T2 construct: purchased R&D Systems 2528-AV
In words: Solid Phase Receptor Assay for αvβ5 Function. The note with it: binding to vitronectin-coated plate; read-out: αvβ5 SPRA IC50. The procedure:
Solid Phase Receptor Assay for αvβ5 Function.
(§1) Wells were washed 3 times with 150 μL TBS+ and 150 μL of blocking buffer (TBS+ with 1% bovine serum albumin, Sigma A7906) were added. The plate was incubated for 1 hr at 37° C. and then washed 3× with TBS+ buffer. […] Compounds were diluted 1:100 into the integrin solution and then 50 μL added to empty wells of the washed vitronectin-coated plate according to a standard template with each sample repeated in triplicate. After incubation for two hours at room temperature, the plate was washed 3× with 150 μL of TBS+ buffer. To each well, 50 μL of biotinylated anti-αv antibody (R&D Systems, BAF1219) at 0.5 μg/mL in TBS+/0.1% BSA at 0.5 μg/mL were added and the plate covered and incubated for 1 hr at room temperature. After washing the plate 3× with 150 μL of TBS+ buffer, 50 μL of streptavidin-conjugated horseradish peroxidase (R&D Systems DY998) diluted in TBS+ blocking buffer were added to the wells and the plate incubated for 20 min at room temperature. The plate was washed 3× with TBS+ buffer followed by 50 μL of TMB substrate (Sigma T4444) added to each well and the plate incubated for 20 min at room temperature. The reaction was optionally stopped with 25 μL of Stop Solution (Sigma S5689). Plates were read by colorimetric detection at 650 nm wavelength using a Tecan Safire II plate reader.

For experiment [3], the target named is T3, Recombinant human integrin αvβ6 (Homo sapiens, UniProt P06756+P18564).
T3 construct: purchased R&D Systems 3817-AV
In words: Solid Phase Receptor Assay for αvβ6 Function. The note with it: binding to LAP-coated plate; read-out: αvβ6 SPRA IC50. As for the experimental part:
Solid Phase Receptor Assay for αvβ6 Function.
as §1, with “150 μL TBS+, and 150” for “150 μL TBS+ and 150”, “at 37° C., and then” for “at 37° C. and then”, “the washed LAP-coated plate according” for “the washed vitronectin-coated plate according”, “TBS+/0.1% BSA were added” for “TBS+/0.1% BSA at 0.5 μg/mL were added”, “the plate was covered and” for “the plate covered and”, “peroxidase (R&D Systems, DY998) diluted” for “peroxidase (R&D Systems DY998) diluted”

T1 sequence (P08648 42-995 limits assumed): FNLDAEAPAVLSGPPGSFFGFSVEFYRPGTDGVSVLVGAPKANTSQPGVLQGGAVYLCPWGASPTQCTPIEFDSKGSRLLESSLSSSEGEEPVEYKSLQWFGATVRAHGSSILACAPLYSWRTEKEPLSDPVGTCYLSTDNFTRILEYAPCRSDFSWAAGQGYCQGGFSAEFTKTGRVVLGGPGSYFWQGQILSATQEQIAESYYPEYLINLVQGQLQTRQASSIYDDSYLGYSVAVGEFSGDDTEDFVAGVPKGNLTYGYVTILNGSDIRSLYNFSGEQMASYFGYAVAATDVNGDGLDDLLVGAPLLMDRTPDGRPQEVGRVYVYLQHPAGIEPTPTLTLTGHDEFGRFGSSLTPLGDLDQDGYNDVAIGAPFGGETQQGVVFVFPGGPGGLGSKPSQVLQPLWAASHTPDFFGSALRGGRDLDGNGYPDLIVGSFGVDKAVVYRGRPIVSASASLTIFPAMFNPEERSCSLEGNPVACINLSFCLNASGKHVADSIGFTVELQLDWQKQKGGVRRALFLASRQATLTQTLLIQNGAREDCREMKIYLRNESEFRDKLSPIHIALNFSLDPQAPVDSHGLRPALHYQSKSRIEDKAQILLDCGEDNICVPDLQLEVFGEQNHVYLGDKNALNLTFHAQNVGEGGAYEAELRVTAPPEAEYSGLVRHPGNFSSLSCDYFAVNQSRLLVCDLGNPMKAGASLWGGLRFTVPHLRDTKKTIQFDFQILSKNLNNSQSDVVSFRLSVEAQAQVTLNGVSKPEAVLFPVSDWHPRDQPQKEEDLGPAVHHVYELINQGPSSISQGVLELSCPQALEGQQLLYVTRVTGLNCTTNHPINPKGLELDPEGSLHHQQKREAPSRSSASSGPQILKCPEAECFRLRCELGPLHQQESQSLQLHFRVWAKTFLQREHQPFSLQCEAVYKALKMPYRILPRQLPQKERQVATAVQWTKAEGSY
T1 sequence (P05556 21-728 limits assumed): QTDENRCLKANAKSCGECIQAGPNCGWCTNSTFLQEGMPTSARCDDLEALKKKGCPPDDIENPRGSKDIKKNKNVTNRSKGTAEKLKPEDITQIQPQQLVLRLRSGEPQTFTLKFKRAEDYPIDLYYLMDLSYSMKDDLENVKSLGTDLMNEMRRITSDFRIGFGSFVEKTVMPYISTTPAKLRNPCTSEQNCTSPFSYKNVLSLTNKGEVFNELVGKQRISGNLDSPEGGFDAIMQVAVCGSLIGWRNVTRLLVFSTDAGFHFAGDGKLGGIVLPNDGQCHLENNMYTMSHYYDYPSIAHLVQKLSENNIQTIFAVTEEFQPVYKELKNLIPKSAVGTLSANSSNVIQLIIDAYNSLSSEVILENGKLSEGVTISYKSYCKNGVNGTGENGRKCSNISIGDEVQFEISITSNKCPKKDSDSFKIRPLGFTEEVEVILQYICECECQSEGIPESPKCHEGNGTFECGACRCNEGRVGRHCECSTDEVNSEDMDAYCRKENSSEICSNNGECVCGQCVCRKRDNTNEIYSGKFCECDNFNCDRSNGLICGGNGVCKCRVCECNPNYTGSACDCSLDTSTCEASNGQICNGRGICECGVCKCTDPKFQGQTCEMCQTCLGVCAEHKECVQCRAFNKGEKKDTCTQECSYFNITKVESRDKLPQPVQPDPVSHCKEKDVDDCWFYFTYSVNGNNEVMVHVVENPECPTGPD
T2 sequence (P06756 31-992 limits assumed): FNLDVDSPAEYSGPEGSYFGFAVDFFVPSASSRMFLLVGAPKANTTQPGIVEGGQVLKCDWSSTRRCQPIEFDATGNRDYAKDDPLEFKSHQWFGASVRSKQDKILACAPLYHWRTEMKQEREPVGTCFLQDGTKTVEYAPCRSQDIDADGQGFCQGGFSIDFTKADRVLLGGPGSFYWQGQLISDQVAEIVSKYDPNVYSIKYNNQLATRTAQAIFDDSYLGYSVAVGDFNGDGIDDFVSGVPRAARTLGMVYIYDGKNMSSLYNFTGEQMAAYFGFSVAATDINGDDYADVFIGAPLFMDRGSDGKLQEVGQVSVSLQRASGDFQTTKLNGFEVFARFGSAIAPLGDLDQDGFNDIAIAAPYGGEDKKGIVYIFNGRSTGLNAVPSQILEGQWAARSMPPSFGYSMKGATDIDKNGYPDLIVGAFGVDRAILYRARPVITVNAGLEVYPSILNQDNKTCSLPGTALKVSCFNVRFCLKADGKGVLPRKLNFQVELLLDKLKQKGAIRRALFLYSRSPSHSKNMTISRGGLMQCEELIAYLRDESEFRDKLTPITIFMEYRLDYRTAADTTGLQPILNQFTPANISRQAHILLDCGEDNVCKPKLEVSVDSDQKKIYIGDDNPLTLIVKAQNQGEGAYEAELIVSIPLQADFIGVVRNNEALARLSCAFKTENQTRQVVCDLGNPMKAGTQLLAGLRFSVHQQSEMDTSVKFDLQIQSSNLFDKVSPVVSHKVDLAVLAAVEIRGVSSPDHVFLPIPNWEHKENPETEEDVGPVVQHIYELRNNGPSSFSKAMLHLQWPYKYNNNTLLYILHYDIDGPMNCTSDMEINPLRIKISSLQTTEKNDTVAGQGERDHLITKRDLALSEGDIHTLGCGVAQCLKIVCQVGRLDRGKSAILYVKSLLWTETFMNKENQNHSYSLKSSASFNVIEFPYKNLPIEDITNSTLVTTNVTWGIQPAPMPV
T2 sequence (P18084 24-719 limits assumed): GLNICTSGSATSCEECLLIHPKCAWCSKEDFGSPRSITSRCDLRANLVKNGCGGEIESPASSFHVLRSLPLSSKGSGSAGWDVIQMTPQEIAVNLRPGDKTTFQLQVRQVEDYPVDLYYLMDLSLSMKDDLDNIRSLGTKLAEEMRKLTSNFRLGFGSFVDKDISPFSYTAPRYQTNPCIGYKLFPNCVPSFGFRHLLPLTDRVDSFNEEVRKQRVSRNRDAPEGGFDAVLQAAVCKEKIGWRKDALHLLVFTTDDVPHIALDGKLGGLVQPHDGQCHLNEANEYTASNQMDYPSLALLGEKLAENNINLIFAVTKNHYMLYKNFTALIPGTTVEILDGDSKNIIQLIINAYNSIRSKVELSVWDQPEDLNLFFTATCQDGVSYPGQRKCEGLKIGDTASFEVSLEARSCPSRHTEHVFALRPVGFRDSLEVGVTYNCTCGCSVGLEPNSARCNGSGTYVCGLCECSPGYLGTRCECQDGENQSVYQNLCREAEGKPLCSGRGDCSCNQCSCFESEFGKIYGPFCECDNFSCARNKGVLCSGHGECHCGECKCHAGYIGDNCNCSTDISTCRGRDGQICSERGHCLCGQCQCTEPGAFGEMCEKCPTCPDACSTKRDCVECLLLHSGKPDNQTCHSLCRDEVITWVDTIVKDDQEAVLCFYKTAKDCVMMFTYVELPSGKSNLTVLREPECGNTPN
T3 sequence (P06756 31-992 limits assumed): as the sequence (P06756 31-992 limits assumed) above
T3 sequence (P18564 22-707 limits assumed): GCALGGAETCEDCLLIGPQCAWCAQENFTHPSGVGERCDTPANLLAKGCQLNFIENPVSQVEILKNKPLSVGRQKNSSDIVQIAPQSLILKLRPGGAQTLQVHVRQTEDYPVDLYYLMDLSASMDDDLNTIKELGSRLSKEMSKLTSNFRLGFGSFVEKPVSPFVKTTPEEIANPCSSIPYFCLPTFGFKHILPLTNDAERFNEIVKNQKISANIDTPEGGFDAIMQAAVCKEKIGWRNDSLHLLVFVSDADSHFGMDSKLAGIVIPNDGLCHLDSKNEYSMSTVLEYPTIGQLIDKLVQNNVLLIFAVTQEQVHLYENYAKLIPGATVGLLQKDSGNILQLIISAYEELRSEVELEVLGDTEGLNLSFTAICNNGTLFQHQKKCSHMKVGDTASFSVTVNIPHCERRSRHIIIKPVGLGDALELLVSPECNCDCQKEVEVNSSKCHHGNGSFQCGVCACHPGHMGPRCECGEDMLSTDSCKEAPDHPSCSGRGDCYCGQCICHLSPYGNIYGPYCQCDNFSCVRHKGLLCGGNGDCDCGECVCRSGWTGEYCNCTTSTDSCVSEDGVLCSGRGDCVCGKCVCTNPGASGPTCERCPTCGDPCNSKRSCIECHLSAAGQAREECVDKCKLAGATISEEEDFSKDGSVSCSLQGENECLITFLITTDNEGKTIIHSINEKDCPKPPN

For orientation: IC50 means the midpoint of a concentration-inhibition curve. As for `N#CC1(c2cc(Cl)cc([C@H](CC(=O)O)NC(=O)CNC(=O)c3cc(O)cc(NC4=NCC(O)CN4)c3)c2)CCC1` (stereo partly drawn) [Example 21, (3S)-3-(3-chloro-5-(1-cyanocyclobutyl)phenyl)-3-(2-(3-hydroxy-5-((5-hydroxy-1,4,5,6-tetrahydropyrimidin-2-yl)amino)benzamido)acetamido)propanoic acid], the concentration for half-maximal inhibition (IC50) in experiment [1] is 0.3 nM; in experiment [2] it was 0.4 nM; in experiment [3], 0.3 nM.

In the case of `N#CC1(c2cc(Cl)cc([C@H](CC(=O)O)NC(=O)CNC(=O)c3cc(O)cc(NC4=NCC(O)CN4)c3)c2)CCOCC1` (stereo partly drawn) [Example 22, (3S)-3-(3-chloro-5-(4-cyanotetrahydro-2H-pyran-4-yl)phenyl)-3-(2-(3-hydroxy-5-((5-hydroxy-1,4,5,6-tetrahydropyrimidin-2-yl)amino)benzamido)acetamido)propanoic acid], the results for the IC50 in experiment [1], in experiment [2] and in experiment [3] were 0.3 nM, 0.4 nM and 0.3 nM, respectively.

In the case of `CC(O)(c1cc(Cl)cc([C@H](CC(=O)O)NC(=O)CNC(=O)c2cc(O)cc(NC3=NCC(O)CN3)c2)c1)C(F)(F)F` (stereo partly drawn) [Example 23, (3S)-3-(3-chloro-5-(1,1,1-trifluoro-2-hydroxypropan-2-yl)phenyl)-3-(2-(3-hydroxy-5-((5-hydroxy-1,4,5,6-tetrahydropyrimidin-2-yl)amino)benzamido)acetamido)propanoic acid], the IC50 in experiment [1] is 0.3 nM; in experiment [2], 0.5 nM; in experiment [3], 0.4 nM.

Consider `CC(C)(c1cc(Cl)cc([C@H](CC(=O)O)NC(=O)CNC(=O)c2cc(O)cc(NC3=NCC(O)CN3)c2)c1)C(F)(F)F` (stereo partly drawn) [Example 24, (3S)-3-(3-chloro-5-(1,1,1-trifluoro-2-methylpropan-2-yl)phenyl)-3-(2-(3-hydroxy-5-((5-hydroxy-1,4,5,6-tetrahydropyrimidin-2-yl)amino)benzamido)acetamido)propanoic acid], for which the concentration for half-maximal inhibition (IC50) in experiment [1] is 0.3 nM; in experiment [2], 0.3 nM; in experiment [3], 0.4 nM.

On to `CC(O)(c1cc([C@H](CC(=O)O)NC(=O)CNC(=O)c2cc(O)cc(NC3=NCC(O)CN3)c2)cc(C(F)(F)F)c1)C(F)(F)F` (stereo partly drawn) [Example 25, (3S)-3-(2-(3-hydroxy-5-((5-hydroxy-1,4,5,6-tetrahydropyrimidin-2-yl)amino)benzamido)acetamido)-3-(3-(1,1,1-trifluoro-2-hydroxypropan-2-yl)-5-(trifluoromethyl)phenyl)propanoic acid], for which the IC50 was 0.4 nM in experiment [1], 1.3 nM in experiment [2] and 0.4 nM in experiment [3].

Take `O=C(O)C[C@H](NC(=O)CNC(=O)c1cc(O)cc(NC2=NCC(O)CN2)c1)c1cc(Br)cc(C2(C(F)F)CC2)c1` (stereo partly drawn) [Example 26, (3S)-3-(3-bromo-5-(1-(difluoromethyl)cyclopropyl)phenyl)-3-(2-(3-hydroxy-5-((5-hydroxy-1,4,5,6-tetrahydropyrimidin-2-yl)amino)benzamido)acetamido)propanoic acid]: the values for the IC50 in experiment [1], in experiment [2] and in experiment [3] were 0.1 nM, 0.5 nM and 0.1 nM, respectively.
